Data published in patent US11490644B2, “Co-Q10, krill oil and vitamin D” (RB HEALTH (US) LLC, priority 2015, dated 2022).
Like-named read-outs stand apart in the source and are kept apart here.

What was measured:
Type in all cases: physicochemical
[1] = Antioxidant study: influence of antioxidant on Co-Q10 stability in krill oil and Vitamin D; conditions: for Amount of Co-Q10: in krill oil and Vitamin D with the antioxidant
Method: (§1) Several antioxidants were evaluated for their ability to stabilize Co-Q10 in krill oil and Vitamin D. The results are summarized in Table 2.

[2] = Influence of antioxidant dosing on Co-Q10 stability
Method: as §1

[3] = Stability of Co-Q10 and Co-QH in krill oil and Vitamin D mixtures, accelerated conditions; conditions: over the 12-week period; 40° C., 75% relative humidity
Method: Two formulations comprising Co-Q10 (Study I) and Co-QH (Study II) were evaluated for stability in krill oil and Vitamin D mixtures. The compositions were subjected to accelerated conditions (40° C., 75% relative humidity for up to 12 weeks), and the amounts of Co-Q10, Co-QH, and ubichromenol were evaluated at several time points.

[4] = Influence of chelating agent on Co-Q10 stability; conditions: with the chelating agent
[5] = antioxidant medium dose, 1 week
[6] = antioxidant medium dose, 2 weeks
[7] = antioxidant medium dose, Initial

In the case of C=CCc1ccc(O)c(OC)c1 [Eugenol], the “Ability to stabilize Co-Q10 in krill oil and Vitamin D (in words)” value [1] was “degrades rapidly”, the “Amount of Co-Q10” value ([1]; 1 week) was 48 mg and the “Amount of Co-Q10” value ([1]; 2 weeks) was 25 mg. For the same molecule, the “Amount of Co-Q10” value ([1]; Initial) was 142 mg, the “Amount of Co-Q10” value ([2]; antioxidant high dose, 1 week) was 43 mg and the “Amount of Co-Q10” value ([2]; antioxidant high dose, 2 weeks) was 26 mg. For the same molecule, the “Amount of Co-Q10” value ([2]; antioxidant high dose, Initial) was 146 mg, the “Amount of Co-Q10” value ([2]; antioxidant low dose, 1 week) was 16 mg and the “Amount of Co-Q10” value ([2]; antioxidant low dose, 2 weeks) was 14 mg. For the same molecule, the “Amount of Co-Q10” value ([2]; antioxidant low dose, Initial) was 142 mg, the “Amount of Co-Q10” value [2, 5] was 23 mg and the “Amount of Co-Q10” value [2, 6] was 16 mg. For the same molecule, the “Amount of Co-Q10” value [2, 7] was 146 mg.
With COc1c(O)c(C)c(C/C=C(\C)CC/C=C(\C)CC/C=C(\C)CC/C=C(\C)CC/C=C(\C)CC/C=C(\C)CC/C=C(\C)CC/C=C(\C)CC/C=C(\C)CCC=C(C)C)c(O)c1OC [Co-QH, ubiquinol] the “Stability in krill oil and Vitamin D (in words)” value [3] was “stable”.
In the case of O=C(O)CN(CCN(CC(=O)O)CC(=O)O)CC(=O)O [EDTA], the “Amount of Co-Q10” value ([4]; 1 week) was 10 mg, the “Amount of Co-Q10” value ([4]; 2 weeks) was 0 mg and the “Amount of Co-Q10” value ([4]; Initial) was 125 mg.
For O=C1O[C@H]([C@@H](O)CO)C(O)=C1O [Ascorbic Acid], the “Amount of Co-Q10” value ([1]; 1 week) was 133 mg, the “Amount of Co-Q10” value ([1]; 2 weeks) was 129 mg and the “Amount of Co-Q10” value ([1]; Initial) was 139 mg. The “Amount of Co-Q10” value ([2]; antioxidant high dose, 1 week) was 100 mg, the “Amount of Co-Q10” value ([2]; antioxidant high dose, 2 weeks) was 100 mg and the “Amount of Co-Q10” value ([2]; antioxidant high dose, Initial) was 109 mg. For the same molecule, the “Amount of Co-Q10” value ([2]; antioxidant low dose, 1 week) was 91 mg, the “Amount of Co-Q10” value ([2]; antioxidant low dose, 2 weeks) was 71 mg and the “Amount of Co-Q10” value ([2]; antioxidant low dose, Initial) was 137 mg. The “Amount of Co-Q10” value [2, 5] was 136 mg, the “Amount of Co-Q10” value [2, 6] was 138 mg and the “Amount of Co-Q10” value [2, 7] was 145 mg.
In the case of COC1=C(OC)C(=O)C(C/C=C(\C)CC/C=C(\C)CC/C=C(\C)CC/C=C(\C)CC/C=C(\C)CC/C=C(\C)CC/C=C(\C)CC/C=C(\C)CC/C=C(\C)CCC=C(C)C)=C(C)C1=O [Co-Q10, Coenzyme Q10], the “Stability in krill oil and Vitamin D (in words)” value [3] was “unstable”.
With NC(N)=S [Thiourea] the “Ability to stabilize Co-Q10 in krill oil and Vitamin D (in words)” value ([1]; Table 2) was “degrades rapidly”.
In the case of CC(=O)OO [Peracetic acid (PAA), Peracetic acid], the “Amount of Co-Q10” value ([4]; 1 week) was 10 mg, the “Amount of Co-Q10” value ([4]; 2 weeks) was 0 mg and the “Amount of Co-Q10” value ([4]; Initial) was 137 mg.
